Source: patent publication US10215755B2, “Method of diagnosing and treating Epstein Barr virus-based myalgic encephalomyelitis chronic fatigue syndrome patients” (CFS, LLC, priority 2012, dated 2019)

Tests used:
[1] = system: early herpes virus proteins; conditions: cited from earlier work
[2] = biological target: EBV thymidine kinase (Epstein-Barr virus, UniProt P03177); conditions: after gastrointestinal absorption; cited from earlier work
[3] = system: group A ME/CFS patients; assay: Follow-up of 106 group A ME/CFS patients 2001-2007 under subset directed antiviral treatment; assay type: in vivo, human; conditions: 79 of 106 group A patients, valacyclovir (EBV subset) or valganciclovir (HCMV, HHV6 subsets), 2001-2007, p<0.0001
Text: A ME/CFS diagnostic panel was created utilizing initial Fukuda/Carruthers criteria and a systematic review of 142 ME/CFS patients. Two groups of ME/CFS patients were found. Group A patients had elevated serum IgG antibody titers to the herpes viruses Epstein-Barr virus (EBV), cytomegalovirus (HCMV) and Human Herpes virus 6 (HHV6) in single or multiple virus infection, but no other co-infections. Group B patients had similar elevated herpes virus antibody titers, plus serologic evidence of co-infections, tick-borne (“Borrelia burgdorferi”, “Anaplasma phagocytophilia”, “Babesia microti”); “Mycoplasma pneumoniae”; or adult rheumatoid fever. One hundred and six group A ME/CFS patients were followed from 2001-2007, and treated with subset directed valacyclovir EBV subset or valganciclovir (HCMV, HHV6 subsets). The data included over 7000 patient visits and 35,000 data entries.

[4] = system: EBV subset ME/CFS patients; assay: Energy Index Point Score (EIPS) of six EBV subset ME/CFS patients treated with valacyclovir for ≥12 months; assay type: in vivo, human; conditions: for EIPS final: valacyclovir ≥12 months
Method: As depicted in Table 1, the Energy Index (EI) point score (Copyright, Lerner A M and Deeter R G, 1999), is a simple and reliable metric that can be used to easily evaluate the functional capacity of the CFS patient at each patient-physician visit. The EI is measured on a scale of 1-10. Validation of the EI was done using two methods: 1.) 20 CFS patients and 22 healthy adults, matched for sex, age, place, and time; EI, CFS=3.6; EI, healthy adults=9.9, p=<0.0001; and 2.) 55 CFS patients evaluated at the same time by the EI and fatigue severity score, correlation 0.67, p=0.0066. Improvement to disappearance of CFS symptoms correlates with an increasing EI.
The validated energy index point score generally can be calculated for each CFS patient every 3 months at physician visits. A CFS patient has an EI≤5. A CFS patient with an […] is bedridden; a CFS diagnosis is no longer present at an EI>5. The EI effect size is 0.25, a medium effect size is 0.5. A large effect size is >0.8.
6 ME/CFS patients were identified as Group A EBV subset (five patients), and one patient (group B) had co-infection with Borrelia burgdorferi. […] A ME/CFS treatment decision tree that developed from the systematic review of the 142 ME/CFS patients is provided as FIG. 1.
Demographics. ME/CFS patients (Table 2) the six ME/CFS patients (5 women) were selected from 142 ME/CFS of the 2001-2007 systematic review. They were 37-59 years old. Serum samples were taken at intervals Mar. 5, 2002-Nov. 14, 2003. There were 7 to 10 sera from each patient. Five of the 6 ME/CFS patients were Group A (no co-infections), and one patient had co-infection with Borrelia burgdorferi (patient no. 2). Five of the 6 patients were HCMV IgG serum antibody negative. Initial EIPS values were 3.5-5.0, meaning that patients could be out of bed only 3 to 4 hours a day, and required daily naps in bed to complete each day. One ME/CFS patient was able to struggle to complete a sedentary working day (Table 2, patient no. 6). […] They struggled at baseline to maintain their sedentary working day, required a daytime nap, and could no longer do any exercise without marked syncope and worsening fatigue. One year later the final EIPS values were 7-8, for the 5 group A ME/CFS patients, meaning that patients could now live normal lives. The single group B ME/CFS patient's final EIPS value increased from a baseline of 3.5 to 5, but this […] still met international criteria diagnosis of ME/CFS. The EIPS is a validated (FSS-9 item scale with high degree of internal consistency measured by Cronbach's alpha) is a Functional Activity Appraisal: energy Index Score Healthcare worker Appraisal.

[5] = biological target: HCMV DNA polymerases (Human cytomegalovirus, UniProt P08546); conditions: cited from earlier work
Chain of HCMV DNA polymerases (P08546 whole entry): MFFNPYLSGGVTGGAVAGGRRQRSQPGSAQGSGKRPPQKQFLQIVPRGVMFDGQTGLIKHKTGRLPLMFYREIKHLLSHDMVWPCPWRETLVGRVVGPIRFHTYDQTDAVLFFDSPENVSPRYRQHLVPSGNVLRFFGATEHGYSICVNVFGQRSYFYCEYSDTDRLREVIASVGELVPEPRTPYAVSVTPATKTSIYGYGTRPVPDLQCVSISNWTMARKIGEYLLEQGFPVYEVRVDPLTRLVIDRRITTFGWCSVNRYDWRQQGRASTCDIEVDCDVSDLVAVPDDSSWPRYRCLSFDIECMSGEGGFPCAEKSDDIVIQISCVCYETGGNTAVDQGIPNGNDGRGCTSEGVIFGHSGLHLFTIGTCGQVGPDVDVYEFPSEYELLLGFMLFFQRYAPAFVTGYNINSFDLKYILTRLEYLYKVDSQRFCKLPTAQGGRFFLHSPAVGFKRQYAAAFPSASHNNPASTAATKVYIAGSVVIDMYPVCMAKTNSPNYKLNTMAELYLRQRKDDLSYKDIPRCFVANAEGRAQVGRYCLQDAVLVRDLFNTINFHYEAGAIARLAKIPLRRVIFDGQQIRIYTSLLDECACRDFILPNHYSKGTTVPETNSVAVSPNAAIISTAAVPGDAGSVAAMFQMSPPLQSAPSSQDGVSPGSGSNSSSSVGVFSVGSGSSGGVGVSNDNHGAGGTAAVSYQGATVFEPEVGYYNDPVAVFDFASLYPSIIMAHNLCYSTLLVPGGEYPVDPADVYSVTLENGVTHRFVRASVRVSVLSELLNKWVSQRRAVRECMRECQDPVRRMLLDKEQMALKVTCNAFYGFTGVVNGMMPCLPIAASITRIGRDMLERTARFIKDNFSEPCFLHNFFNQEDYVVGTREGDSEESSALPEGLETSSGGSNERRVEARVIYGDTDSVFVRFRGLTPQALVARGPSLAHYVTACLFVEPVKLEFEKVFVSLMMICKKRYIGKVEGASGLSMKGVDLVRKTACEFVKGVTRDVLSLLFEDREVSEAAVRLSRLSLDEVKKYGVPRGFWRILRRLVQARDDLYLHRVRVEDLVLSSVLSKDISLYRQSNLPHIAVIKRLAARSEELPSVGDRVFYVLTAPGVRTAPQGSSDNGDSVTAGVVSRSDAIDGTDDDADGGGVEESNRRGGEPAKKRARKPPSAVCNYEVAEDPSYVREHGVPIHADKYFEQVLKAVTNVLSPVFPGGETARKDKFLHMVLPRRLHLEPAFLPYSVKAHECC

[6] = biological target: HV6 DNA polymerases (Human herpesvirus 6A, UniProt P28857); conditions: cited from earlier work
Chain of HV6 DNA polymerases (P28857 whole entry): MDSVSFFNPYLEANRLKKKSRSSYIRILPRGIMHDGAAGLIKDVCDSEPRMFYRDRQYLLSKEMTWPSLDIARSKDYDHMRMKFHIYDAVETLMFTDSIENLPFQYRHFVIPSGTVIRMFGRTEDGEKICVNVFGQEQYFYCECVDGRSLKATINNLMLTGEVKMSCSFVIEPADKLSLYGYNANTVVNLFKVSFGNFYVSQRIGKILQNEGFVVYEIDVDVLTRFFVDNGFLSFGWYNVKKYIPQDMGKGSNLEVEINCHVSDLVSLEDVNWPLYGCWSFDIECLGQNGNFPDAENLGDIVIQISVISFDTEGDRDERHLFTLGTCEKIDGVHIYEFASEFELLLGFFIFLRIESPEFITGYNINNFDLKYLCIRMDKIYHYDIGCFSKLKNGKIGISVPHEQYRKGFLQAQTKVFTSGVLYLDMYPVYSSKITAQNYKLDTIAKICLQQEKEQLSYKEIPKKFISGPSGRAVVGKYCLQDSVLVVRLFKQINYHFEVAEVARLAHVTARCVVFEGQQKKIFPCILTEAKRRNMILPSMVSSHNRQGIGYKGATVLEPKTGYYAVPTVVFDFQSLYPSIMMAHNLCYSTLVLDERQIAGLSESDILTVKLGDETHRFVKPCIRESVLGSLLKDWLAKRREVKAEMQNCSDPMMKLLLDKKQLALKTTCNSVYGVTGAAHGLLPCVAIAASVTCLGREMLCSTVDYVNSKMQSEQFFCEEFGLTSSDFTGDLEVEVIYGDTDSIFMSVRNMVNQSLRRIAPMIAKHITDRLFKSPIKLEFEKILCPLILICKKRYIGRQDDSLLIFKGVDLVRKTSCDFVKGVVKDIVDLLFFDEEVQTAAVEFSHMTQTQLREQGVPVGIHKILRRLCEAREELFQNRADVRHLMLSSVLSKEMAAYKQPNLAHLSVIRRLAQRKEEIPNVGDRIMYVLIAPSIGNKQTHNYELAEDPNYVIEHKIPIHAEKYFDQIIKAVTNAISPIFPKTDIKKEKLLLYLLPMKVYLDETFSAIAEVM

Chain of EBV thymidine kinase (P03177 whole entry): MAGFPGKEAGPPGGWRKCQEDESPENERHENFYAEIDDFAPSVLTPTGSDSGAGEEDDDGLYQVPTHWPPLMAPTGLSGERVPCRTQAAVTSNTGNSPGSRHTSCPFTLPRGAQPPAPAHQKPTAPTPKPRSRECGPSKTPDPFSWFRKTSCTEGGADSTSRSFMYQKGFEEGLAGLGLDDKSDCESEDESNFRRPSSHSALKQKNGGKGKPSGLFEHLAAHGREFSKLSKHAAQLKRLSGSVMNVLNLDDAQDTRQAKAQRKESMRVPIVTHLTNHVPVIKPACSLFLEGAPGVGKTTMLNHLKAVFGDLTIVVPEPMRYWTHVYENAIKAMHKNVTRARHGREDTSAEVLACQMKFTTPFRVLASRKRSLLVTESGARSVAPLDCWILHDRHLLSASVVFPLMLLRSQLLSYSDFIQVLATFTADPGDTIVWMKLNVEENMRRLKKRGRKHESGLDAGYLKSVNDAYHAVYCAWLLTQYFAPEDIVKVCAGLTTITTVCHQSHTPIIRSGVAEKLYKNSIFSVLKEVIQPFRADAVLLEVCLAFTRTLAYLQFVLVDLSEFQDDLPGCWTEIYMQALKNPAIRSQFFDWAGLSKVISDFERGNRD

Row | SMILES | inhibition of early herpes virus proteins [1] | greater affinity for EBV thymidine kinase than for the host cellular enzyme [2] [×] | group A patients recovered to resume normal life [3] [%] | EIPS final ([4]; patient 1, Group A, no co-infection, EIPS 5 baseline) | EIPS final ([4]; patient 2, Group B, co-infection Lyme disease, EIPS 3.5 baseline) | EIPS final ([4]; patient 3, Group A, no co-infection, EIPS 5 baseline) | EIPS final ([4]; patient 4, Group A, no co-infection, EIPS 4 baseline) | EIPS final ([4]; patient 6, Group A, no co-infections, EIPS 6 baseline) | final EIPS value ([4]; single group B ME/CFS patient, baseline 3.5, still met criteria of ME/CFS) | final EIPS values ([4]; the 5 group A ME/CFS patients, one year later, initial EIPS 3.5-5.0 (one patient 6)) | inhibition of HCMV DNA polymerases [5] | inhibition of HV6 DNA polymerases [6]
1 | CC(C)[C@H](N)C(=O)OCCOCn1cnc2c(=O)[nH]c(N)nc21 [valacyclovir] | do not inhibit | 200 | 74.5 | EIPS 8 | EIPS 5 | EIPS 8 | EIPS 7 | EIPS 7 | 5 | 7-8 | – | –
2 | CC(C)[C@H](N)C(=O)OCC(CO)OCn1cnc2c(=O)nc(N)[nH]c21 (some centres unmarked) [valganciclovir] | do not inhibit | – | 74.5 | – | – | – | – | – | – | – | inhibits | inhibits
